Values of other authors, collected in patent US7169813B2, “4-oxo-fenretinide, administered alone and in combination with fenretinide, as preventive and therapeutic agent for cancer” (Fondazione IRCCS “Istituto Nazionale Dei Tumori”, priority 2004, dated 2007).

Legend:
human ovarian carcinoma = settings: mice bearing a human ovarian carcinoma, cited from earlier work
[1] = system: different tumor cell lines; settings: cited from earlier work

In the case of `COc1ccc(NC(=O)\C=C(C)/C=C/C=C(C)\C=C\C2=C(C)CCCC2(C)C)cc1` (stereo in doubt) [4-MPR, N-(4-methoxyphenyl)retinamide], the antitumor effect (human ovarian carcinoma) is given as “no antitumor effect”, the “effect on 4-HPR activity” value (human ovarian carcinoma; with 4-HPR) is given as “did not increase 4-HPR activity” and the inhibiting proliferation [1] is given as “ineffective”.
